Source: paper PMC5655428, “Discovery and pharmacological characterization of a new class of prolyl-tRNA synthetase inhibitor for anti-fibrosis therapy” (PLoS ONE, 2017)

Key:
[1] = body weight and tolerability on topical application in mice; conditions: mouse; for tolerability: dermal topical application; for Body weight day 0 / Body weight day 7: topical, mean ± SE (n = 4-8)
Protocol: The experimenters were blinded to the treatments given to the animals and to the biochemical and histological analyses and the data analyses. Eight-week-old C3H/He male mice (weighing 23~28 g, Japan SLC, Inc., Hamamatsu, Japan) were used for all the in vivo experiments. […] These animals were maintained on a 12/12 h light/dark cycle with constant temperature (23 ± 2°C) under specific pathogen-free conditions. Standard chow diet and water were available ad libitum.
After acclimatization for 1 weeks, animals were randomly divided according to body weight and treated for 3 to 5 consecutive days as follows. The ear and dorsal skin of mouse were intradermally injected with 20 μL (100 μL, dorsal skin) PBS or 500 ng TGF-β in PBS under anaesthesia with 3–4% sevoflurane. Injections were continued in this manner daily for 3 days (days 0, 1 and 2) or 5 days (days 0, 1, 2, 3 and 4). Treatment protocol included the daily topical application of T-3833261 or HF cream on the ear (40 μL/ear) 1 h before injections into the ear. A vehicle without compounds was applied to control mice. The topical material contained sorbitan sesquioleate (50 g), lanolin (50 g), liquid paraffin (250 g), propylene glycol (50 g), 90% lactic acid (1.5 g), T-3833261 (0.1, 0.3 and 1 g) or HF (0.1 g), and distilled water as the rest material. Topical application of compound was continued for 7 days. Mice were euthanized by cervical dislocation under sevoflurane anesthesia at 3 or 5 days after last TGF-β injection and the ear surrounding the TGF-β injection site was harvested with 8 μm biopsy punch under anesthesia.

[2] = system: TGF-β-treated human skin fibroblast; assay: α-SMA and pro-COL1A1 protein ELISA in TGF-β-treated skin fibroblasts (Protocol 1); assay type: cell-based; conditions: TGF-β 1 ng/mL, 24 h; for pro-COL1A1 protein expression / α-SMA protein expression: 1-300 nM, 0.5 h pre-treatment, ELISA
Protocol: Primary human skin fibroblasts (NHDF-Ad) were obtained from Lonza (Basel, Switzerland). Cells were cultured and maintained in growth medium: Fibroblast Basal Medium (FBM) containing human fibroblast growth factor-B, insulin, fetal bovine serum (FBS) and gentamicin/amphotericin-B (Lonza). Cells were maintained in a humidified incubator at 37°C with 5% CO2 and used for experiments between passages 5 to 8.
Protocol 1: Cells were allowed to adhere overnight before being replaced with serum-free FBM for 24 h. Serum-starved cells were first pretreated with samples in DMSO at concentrations between 1 and 300 nM for 30 min and then stimulated with 1 ng/mL recombinant human TGF-β (R&D Systems, Minneapolis, MN, USA) for 24 h.
Cell lysates were prepared with cell lysis buffer (Cell Signaling Technology, Beverly, MA, USA) and subjected to α-SMA ELISA system (Abnova, Taipei, Taiwan) and Pro-type I Collagen α1 (pro-COL1A1) SimpleStep ELISA Kit (Abcam, Cambridge, UK, USA) according to the manufacturer's protocol.

[3] = system: primary human skin fibroblast; assay: mRNA expression of fibrosis-related genes by real-time quantitative RT-PCR; assay type: cell-based; conditions: 1-300 nM, TGF-β 1 ng/mL, 24 h
Protocol: Cells were allowed to adhere overnight before being replaced with serum-free FBM for 24 h. Serum-starved cells were first pretreated with samples in DMSO at concentrations between 1 and 300 nM for 30 min and then stimulated with 1 ng/mL TGF-β for 24 h. Then total RNA was collected from the cells by RNeasy 96 Kit (Qiagen, Valencia, CA, USA) and DNaseI (Qiagen) according to the manufacturer's protocol.
Total RNA was isolated from in vivo samples using ISOGEN II (Nippongene) according to the manufacturer's instructions. In vitro RNA samples were prepared as mentioned above. High Capacity cDNA Reverse Transcription Kit (Life Technologies, Carlsbad, CA, USA) was used for cDNA synthesis. Real-time quantitative RT-PCR reactions were performed as a TaqMan method on a ViiA 7 real-Time PCR System (Life Technologies), using TaqMan Fast Advanced Master Mix (Lifer Technologies) with specific primers on TaqMan Gene Expression Assays (Life Technologies) according to the manufacturer's manual. FAM-probed primers were used: COL1A1, Hs00164004_m1; α-SMA/ACTA2, Hs00426835_g1; fibroblast growth factor 2 (FGF2), Hs00266645_m1; Smad specific E3 ubiquitin protein ligase 2 (SMURF2), Hs00224203_m1; DDIT3, Hs00358796_g1; and glyceraldehyde 3-phosphate dehydrogenase (GAPDH), 4326317E for human in vitro cell assay. FAM-probed and TAMRA-quenched primers (Sigma-Aldrich Japan, Tokyo, Japan) were used: Col1a1, NM_007742; type I collagen alpha 2 (Col1a2), NM_007743; α-Sma/Acta2, NM_007392; and Gapdh, NM_008084 for mouse in vivo assay (S1 Table). The relative mRNA level of the target genes was calculated by the comparative threshold cycle (Ct) method using GAPDH (Gapdh) as an internal control for normalization. The fold change in the expression of each target gene was calculated by the following formula: relative quantification (RQ) = 2^-ΔΔCt.

[4] = system: Smad3 and phosphorylated Smad3 in human skin fibroblasts; assay: Smad3 activation in western blotting; assay type: cell-based; conditions: 24 h treatment, then TGF-β 1 ng/mL 30 min; tested at 30 and 300 nM; western blot
Protocol: Cells were allowed to adhere overnight before being replaced with serum-free FBM for 24 h. Serum-starved cells were first pretreated with samples in DMSO at 30 and 300 nM for 24 h and then stimulated with 1 ng/mL TGF-β for 30 min. Cell lysates were prepared with lysis buffer and cellular proteins (11 μg/well) were separated by sodium dodecyl sulfate-polyacrylamide gel electrophoresis (4–20% Criterion TGX Precast Gel; Bio-Rad, Ontario, CA, USA). Protein bands were then transferred to polyvinylidene fluoride membranes (Trans-Blot Turbo Midi, Bio-Rad). Following blocking, the membranes were incubated with primary antibodies targeted against phospho-Smad3 (Cell Signaling Technology), Smad3 (Cell Signaling Technology) and β-actin (Cell Signaling Technology) followed by horseradish peroxidase-conjugated secondary antibody (Cell Signaling Technology). ECL Prime Western Blotting Detection Reagent (GE Healthcare Bio-Sciences, Little Chalfont, England) and LAS-3000 image analyzer (Fuji-film, Tokyo, Japan) were used for detection. Western blot band intensities were calculated by densitometric analyses with National Institutes of Health image software, Image J. Representative pictures are shown with quantified densitometric data.

Row | SMILES | tolerability [1] | pro-COL1A1 protein expression [2] | α-SMA protein expression [2] | concentration reducing α-SMA and pro-COL1A1 proteins below the basal level of non-stimulated cells [2] | COL1A1 mRNA expression [3] | DDIT3 mRNA expression [3] | FGF2 mRNA expression [3] | SMURF2 mRNA expression [3] | α-SMA mRNA expression [3] | concentration showing a decrease in TGF-β-induced accumulation of Smad3 [4] | concentration showing a decrease in phosphorylated Smad3 (p-Smad3) [4] | Body weight day 0 ([1]; 0.01% cream) | Body weight day 7 ([1]; 0.01% cream) | Body weight day 0 ([1]; 0.03% cream) | Body weight day 7 ([1]; 0.03% cream) | Body weight day 0 ([1]; 0.1% cream) | Body weight day 7 ([1]; 0.1% cream) | body weight of the mice after one week of continuous topical application ([1]; topical cream)
1 | O=C(CC1NCCCC1O)Cn1cnc2cc(Br)c(Cl)cc2c1=O (centres unmarked) [HF, Halofuginone, reference compound] | well-tolerated | suppressed pro-COL1A1 protein expression in a dose-dependent manner | suppressed α-SMA protein expression in a dose-dependent manner | ≥ 100 nM | reduced to near the level of non-stimulated control | dose-dependently increased DDIT3 expression | dose-dependently increased SMURF2 and FGF2 expressions | dose-dependently increased SMURF2 and FGF2 expressions | suppressed TGF-β-induced expression of α-SMA | 300 nM | 300 nM | – | – | – | – | – | – | –
2 | Cn1cc(-c2cc(F)cc(CNC(=O)c3nccc4nc(C5CCCC5)[nH]c34)c2)cn1 [T-3833261, 2-Cyclopentyl-N-(3-fluoro-5-(1-methyl-1H-pyrazol-4-yl)benzyl)-3H-imidazo[4,5-c]pyridine-4-carboxamide] | well-tolerated | suppressed pro-COL1A1 protein expression in a dose-dependent manner | suppressed α-SMA protein expression in a dose-dependent manner | ≥ 100 nM | suppressed expression of these fibrotic genes | dose-dependently increased DDIT3 expression | dose-dependently increased SMURF2 and FGF2 expressions | dose-dependently increased SMURF2 and FGF2 expressions | suppressed expression of these fibrotic genes | 30 nM | 300 nM | 22.9 ± 0.8 g | 23.8 ± 0.5 g | 23.1 ± 0.6 g | 23.4 ± 0.4 g | 22.4 ± 0.4 g | 22.2 ± 0.5 g | did not change
